Reference: the OligoGym collection
These antisense oligonucleotides have a phosphorothioate backbone; sugars and methylation of C are not fully specified.

Assays:
[1] = biological target: PDPK1; details: ASO
[2] = biological target: GNA12; details: ASO
Also: test concentration or dose not given here.

Row | Sequence | remaining target (mRNA or protein) (fraction of control) [1] | remaining target (mRNA or protein) (fraction of control) [2]
1 | GCTGCAAGGTTTCCGCCT | ≥ 1 | –
2 | ATGTTTTCCGGTTTAAGG | 0.66 | –
3 | GAAGTCCTCAGGCCGCTT | 0.28 | –
4 | GGAGGCTGGGCATGCTGC | 0.16 | –
5 | ATAGCAGTCCTCGTCGTC | 0.57 | –
6 | AGACTTTTGCTGTTCCAA | 0.28 | –
7 | TAAACCCTTCCGCTTATC | ≥ 1 | –
8 | GATTTTGCGAATATATTT | ≥ 1 | –
9 | CGATCTCAGCCGTGTAAA | 0.13 | –
10 | TAAAGCTTAACAAAGAAG | ≥ 1 | –
11 | ATATTCTCTGGAGGTTGC | 0.78 | –
12 | CAAGGTTTCCGCCTCTGC | 0.26 | –
13 | CACATCCACCATCTTAAA | – | ≥ 1
14 | GAGTTGGCCCTGGCTTGT | 0.5 | –
15 | AGCTGGCTGGTGGTCCTG | 0.36 | –
16 | GTGGTGAAGTGGTGGAAG | – | 0.87
17 | TTTAAGTAGTTCTCCATT | 0.39 | –
18 | TCAGGAACATCCCATGCT | – | 0.79
19 | CTCAGGCCGCTTCTTCCG | 0.53 | –
20 | GTTCCGTCTCTTCCTGTC | – | 0.36
21 | CTGAAATGTGAAGTAAAG | 0.45 | –
22 | GTCGTACTCGCTGGAGGA | – | 0.39
23 | TGGACAAAGAAAGTTTTA | ≥ 1 | –
24 | GCTGCCTCCAAACCTCCT | ≥ 1 | –
25 | CAGGACAACCGTGGAAAA | ≥ 1 | –
26 | CCTGAAGTCCGGGAAGTG | – | 0.85

Row | Sequence | remaining target (mRNA or protein) (fraction of control) [1] | remaining target (mRNA or protein) (fraction of control) [2]
27 | AAAGGTCTGAACTCTTAC | 0.59 | –
28 | GCAGGAACATAACACCAC | 0.54 | –
29 | GCTGTTCCCACGAATGAG | 0.39 | –
30 | GAAGCGGACGTTCTCGGT | – | ≥ 1
31 | ATCGGGTACAGGTCTCAT | 0.68 | –
32 | CATCCCGCTCTCTGGTTA | 0.41 | –
33 | TATGATATGTCGCTTCTC | 0.42 | –
34 | ATGATGGAGACGTTGAAG | – | ≥ 1
35 | TAAGTCCAGTTCAAAGGA | 0.75 | –
36 | GTGAGGAGGAGGACGAAG | 0.7 | –
37 | TGGATGTGCATATCTTCA | 0.81 | –
38 | CAGAATCCCTCCAGAGTG | – | 0.37
39 | AGCAGGCAGCGGCTGAGG | – | 0.93
40 | CAGCCGGTTGGTGCGCCT | – | 0.25
41 | TCTGGAGAAACGTACTGC | ≥ 1 | –
42 | CAGCTTCTCGTCGTCCTG | 0.26 | –
43 | CCGCTGGCCGCCCACATC | – | 0.47
44 | GGTACAGGTCTCATCGAA | 0.1 | –
45 | GCTCACGGTCTTCACCTT | – | ≥ 1
46 | GACATCCCGCTCTCTGGT | 0.68 | –
47 | CTGACAGGGAGTGTGAGG | ≥ 1 | –
48 | CTGGAACCACTTCTGGCG | – | 0.89
49 | GGAAGTACTTCACCGACT | – | ≥ 1
50 | TCTTCTTAATAACGAAGT | – | 0.48
51 | AGGATGTTGTCGAAGATG | – | 0.77
52 | AATTCAGCTGGCCGATCC | – | 0.59

Row | Sequence | remaining target (mRNA or protein) (fraction of control) [1] | remaining target (mRNA or protein) (fraction of control) [2]
53 | GGATGATGCGCATCTGCT | – | ≥ 1
54 | TCGAAGATGGTGTCGCGG | – | 0.98
55 | GGGACGTACAGCTGGAAG | – | 0.53
56 | CGAAGGCCATCAGGAACA | – | ≥ 1
57 | CCCCGCCTTGTTCTCGAA | – | 0.85
58 | TTGTTGACGATGGTCTCG | – | 0.73
59 | GGTTCTCCTGCAGGATGG | – | 0.93
60 | CTCAGGGCCGGGACGTAC | – | 0.77
61 | GCAGGATCTTCACCAGGC | – | 0.93
62 | GGAAGAGAATGATGGAGA | – | ≥ 1
63 | TCTGGTCGAACTCGCGGC | – | 0.7
64 | CCGTCGAAGCACTGGAAC | – | 0.8
65 | GATATCTTGCTTACTAGG | – | 0.37
66 | AGCCCTTGAGGATGTTGT | – | 0.94
67 | CACCAGGAGGTCCATCTT | – | 0.75
68 | GCGCATCTGCTTGAGGAA | – | 0.82
69 | GTGCGCTCAGGGCCGGGA | – | 0.72
70 | AGTGCTTCTTGATGCTCA | – | 0.62
71 | AGCATGATGTCCTTCAGG | – | 0.29
72 | GTTGAAGAAGAGCTTGTT | – | 0.33
73 | CACAATTCCCTTGGTGGC | – | ≥ 1
74 | CCGATCCGGTCCAAGTTG | – | 0.38
75 | CTTGGTGGCTTTCCTAGC | – | ≥ 1
76 | CTGGAGGAGACCATGAAC | – | ≥ 1
77 | TTAATAACGAAGTCATGC | – | 0.73
78 | AAGATGTTCATGGACTCC | – | 0.33

Row | Sequence | remaining target (mRNA or protein) (fraction of control) [1] | remaining target (mRNA or protein) (fraction of control) [2]
79 | GTGCATCAACAAGAACCC | – | 0.89
80 | AAGTCATGCTCCACAATT | – | 0.64
81 | GCTTGAGGAACGTGGACT | – | 0.31
82 | GGACCTGGTCGTACTCGC | – | 0.42
83 | GTCCATCTTGTTGAGGAA | – | 0.68
84 | GAAAGCCTCCCTGATGCC | – | 0.38
85 | GCGCCTTCTGGTCGAACT | – | 0.72
86 | ACTAGGAAAGTAATTCAG | – | 0.47
87 | GTGGACTTGCCGCTCTCG | – | ≥ 1
88 | TCCATGAGGACCTGGTCG | – | 0.79
89 | TTCATGGACTCCACCAGC | – | 0.57
90 | ACGTGGACTTGCCGCTCT | – | 0.32
91 | ACTCGCTTCTCCGGCTGA | – | 0.85
92 | CCCTGATGCCAGAATCCC | – | 0.39
93 | AAGTTGTCCAGGAAGTAC | – | 0.44
94 | CCTGTCGAAGCACTGGAC | – | 0.34
95 | CTTATCTCGTGCATCAAC | – | 0.51
96 | GTCGATGTCGCGGCTACG | – | ≥ 1
97 | CTGAGGGTCCGCACCACC | – | ≥ 1
98 | CTCGCGGCCGTGGATGAT | – | 0.99
99 | CATGAACAGGATGGACGT | – | 0.5
100 | CTCCAGCAGCGCCTTCTG | – | ≥ 1
101 | TGTCGCGGAACTCCAGCA | – | 0.79
